The results in this text go back to ChEMBL document CHEMBL4004874, “Synthesis and biological evaluation of C-3 aliphatic coumarins as vitamin K antagonists” (Bioorg Med Chem Lett, 2017).

SMILES strings stand for the structures.

Data set [1] relates to Rattus norvegicus. Description: Anticoagulant activity in Sprague-Dawley rat assessed as increase of prothombin time at 10 mg/kg, po after 24 hrs relative to control. It counts as functional.
Data set [2] concerns Liver. Description: Drug uptake in Sprague-Dawley rat liver assessed per gram of liver at 10 mg/kg, po by HPLC-UV analysis. It counts as ADME, organism-based. The settings on record: in vivo.
Data set [3] deals with T1, Vitamin K epoxide reductase complex subunit 1 (Rattus norvegicus, UniProt Q6TEK4).
T1 sequence (Q6TEK4 whole entry): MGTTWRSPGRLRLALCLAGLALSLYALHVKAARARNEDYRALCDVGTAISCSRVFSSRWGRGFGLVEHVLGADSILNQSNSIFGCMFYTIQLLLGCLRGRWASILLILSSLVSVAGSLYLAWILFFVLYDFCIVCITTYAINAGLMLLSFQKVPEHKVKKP
The experiment in a line: Inhibition of VKORC1 in rat liver microsomes in presence of 0.003 to 0.2 mM vitamin K.

Data set [4] has as its system Liver. The experiment in a line: Drug uptake in Sprague-Dawley rat liver assessed per gram of liver at 10 mg/kg, po after 72 hrs by HPLC-UV analysis. In kind it is ADME, organism-based. The settings on record: in vivo.
For data set [5], the system named is Rattus norvegicus. The experiment in a line: Anticoagulant activity in Sprague-Dawley rat assessed as increase of prothombin time at 10 mg/kg, po after 7 hrs relative to control. In kind it is functional.
The test system of data set [6] is Liver. The experiment in a line: Drug uptake in Sprague-Dawley rat liver assessed per gram of liver at 10 mg/kg, po after 24 hrs by HPLC-UV analysis. It counts as ADME, organism-based. The conditions noted are these: in vivo.
The subject of data set [7] is Liver. Description: Drug uptake in Sprague-Dawley rat liver assessed per gram of liver at 10 mg/kg, po after 7 hrs by HPLC-UV analysis. In kind it is ADME, organism-based. The conditions noted are these: in vivo.
The test system of data set [8] is Rattus norvegicus. Description: Anticoagulant activity in Sprague-Dawley rat assessed as increase of prothombin time at 10 mg/kg, po after 72 hrs relative to control. It counts as functional.

`CC(C)CCCC(C)CCCC(C)CCCC(C)CC(c1ccccc1)c1c(O)c2ccccc2oc1=O` (stereo not given): the “fold change (FC)” value in the data set on Rattus norvegicus [1] is reported as 1. Besides, the Drug uptake result in the data set with Liver [2] (BLD = below limit of detection) is “Bld”. In addition, the Ki in data set [3] was determined as 200 nM.
Turning to `CC(C)CCCC(C)CCCC(C)CCCC(C)CCc1c(O)c2ccccc2oc1=O` (stereo not given), in the data set with Rattus norvegicus [1], the “fold change (FC)” value worked out at 1. Moreover, the Drug uptake result in the data set on Liver [2] (BLD = below limit of detection) was “Bld”. In data set [3], the Ki came out at 50 nM.
As to `C/C(=C\Cc1c(O)c2ccccc2oc1=O)CCCC(C)CCCC(C)CCCC(C)C` (stereo not given), in the data set on Rattus norvegicus [1], the “fold change (FC)” value came to 1. Moreover, the Drug uptake with Liver [2] is 1.3 µg/g. Besides, the Ki in data set [3] stood at 20 nM.
For `CCCCCCCCCCCC(c1ccc(Cl)cc1)c1c(O)c2ccccc2oc1=O` (stereo not given), the Drug uptake in the data set with Liver [4] turned out to be 1 µg/g; in the data set with Liver [6], 3 µg/g; in the data set with Liver [7] it was 13 µg. Further, the “fold change (FC)” value came to 1 in the data set on Rattus norvegicus [5], 1 in the data set on Rattus norvegicus [8] and 4 with Rattus norvegicus [1]. Also, in data set [3], the Ki was 20 nM.
As to `CCCCCCCCCCCc1c(O)c2ccccc2oc1=O`, the Ki in data set [3] is 60 nM.
For `CCCCCCCCCCc1c(O)c2ccccc2oc1=O`, the Ki in data set [3] is 90 nM.
For the compound `CCCCCCCCCCCC(c1ccccc1)c1c(O)c2ccccc2oc1=O` (stereo not given), the Drug uptake in the data set on Liver [6] worked out at 0.7 µg/g. Further, the “fold change (FC)” value in the data set with Rattus norvegicus [1] was determined as 1. For the same compound, the Ki in data set [3] was 30 nM.
With `CCCCCCc1c(O)c2ccccc2oc1=O`, the Ki in data set [3] came out at 3900 nM.
The compound `CCCCCCCCCCCCc1c(O)c2ccccc2oc1=O` returned a Drug uptake in the data set on Liver [6] of 0.7 µg/g. The “fold change (FC)” value in the data set with Rattus norvegicus [1] was 1. In data set [3], the Ki was found to be 50 nM.
Consider `CCCCCCCCCCCC(c1ccc(OC)cc1)c1c(O)c2ccccc2oc1=O` (stereo not given), for which, in data set [3], the Ki came out at 100 nM.
Regarding `CCCCCCCCc1c(O)c2ccccc2oc1=O`, in data set [3], the Ki is 260 nM.
With `CCCCCCCCCCCC(c1ccc(C(C)(C)C)cc1)c1c(O)c2ccccc2oc1=O` (stereo not given), the Ki in data set [3] came to 22000 nM.
Consider `CCCCCCCCCCCC(c1ccc(F)cc1)c1c(O)c2ccccc2oc1=O` (stereo not given), for which the Drug uptake in the data set with Liver [6] stood at 0.7 µg/g. Further, the “fold change (FC)” value in the data set with Rattus norvegicus [1] came to 2. For the same compound, the inhibitory constant (Ki) in data set [3] was 20 nM.
Consider `CCC(c1ccccc1)c1c(O)c2ccccc2oc1=O` (stereo not given) [PHENPROCOUMON], for which the Drug uptake came to 1.7 µg/g in the data set with Liver [4] and 12.8 µg/g in the data set with Liver [6]. Further, the “fold change (FC)” value with Rattus norvegicus [1] was 5.5. In data set [3], the Ki came to 200 nM.
Consider `CCCCCCCCCCCC(c1ccc(Cl)cc1Cl)c1c(O)c2ccccc2oc1=O` (stereo not given), for which the figures for the Drug uptake in the data set on Liver [4] and in the data set with Liver [6] were 0.7 µg/g and 3.5 µg/g, respectively. For the same compound, the “fold change (FC)” value amounted to 1 with Rattus norvegicus [8] and 2 with Rattus norvegicus [1]. Besides, the Ki in data set [3] stood at 90 nM.
